# In the supplement of paper PMC10933113:
# ± gives the uncertainty stated by the source.
# How the values were obtained:
# THP-1 = assay: efficacy of IL-8 induction relative to DMSO (% activity); higher = stronger induction; conditions: exposure time: 18 h
# [1] = test system: KeratinoSens (HaCaT ARE-luciferase) cells; assay: efficacy of ARE luciferase induction relative to DMSO (% activity over DMSO); higher = stronger induction; conditions: exposure time: 24 h
# [2] = test system: lysine peptide Ac-RFAAKAA-COOH; assay: efficacy of lysine peptide change (negative = depletion) (% activity); higher = less depletion; conditions: incubation time: 24 h
# [3] = test system: cysteine peptide Ac-RFAACAA-COOH; assay: AC50 of cysteine peptide concentration-response (direction given by sign of efficacy); higher = less potent; conditions: incubation time: 24 h
# [4] = test system: cysteine peptide Ac-RFAACAA-COOH; assay: efficacy of cysteine peptide change (negative = depletion) (% activity); higher = less depletion; conditions: incubation time: 24 h
# [5] = test system: KeratinoSens (HaCaT ARE-luciferase) cells; assay: AC50 of Nrf2/ARE luciferase induction; higher = less potent; conditions: exposure time: 24 h
# [6] = test system: KeratinoSens (HaCaT ARE-luciferase) cells; assay: cytotoxicity AC50 (CellTiter-Fluor viability); higher = less cytotoxic; conditions: exposure time: 24 h
SMILES,efficacy of lysine peptide change [2],AC50 [3] [µM],efficacy of cysteine peptide change [4],efficacy of IL-8 induction (THP-1),efficacy of ARE luciferase induction [1],AC50 of Nrf2/ARE luciferase induction [5] [µM],cytotoxicity AC50 [6] [µM]
"C=CC(=O)OCCCCCCOC(=O)C=C [1,6-Hexanediol diacrylate]",9.01 ± 17,50.1,-106 ± 3.3,9.97 ± 9.4,343 ± 90,35.5,43 ± 2.8
"CC(C)(C)c1cc(O)c(C(C)(C)C)cc1O [2,5-Di-tert-butylbenzene-1,4-diol]",-4 ± 6.9,85.9 ± 5.6,-80.8 ± 14,40.9 ± 4.8,175 ± 86,42.1,34.2 ± 2.2
O=C(CCl)c1ccccc1 [2-Chloroacetophenone],9.03 ± 16,49.4 ± 34,-94.1 ± 28,29.4 ± 7.2,327 ± 92,35.5,57 ± 12
"O=c1ssc(Cl)c1Cl [4,5-Dichloro-3H-1,2-dithiol-3-one]",-36.4 ± 2.7,1.4 ± 0.39,-102 ± 9.4,24.5 ± 3.5,92.3 ± 9.5,21.3,37.8 ± 11
CN(C)c1ccc(SC#N)cc1 [4-(Dimethylamino)phenylthiocyanate],1.57 ± 29,3.84 ± 0.25,-101 ± 5.4,87.8 ± 8.9,73.3 ± 36,34.2,65 ± 18
"Cc1c2ccccc2c(C)c2c1ccc1ccccc12 [7,12-Dimethylbenzanthracene]",-47.7 ± 5.3,19.4 ± 11,-86.2 ± 6.7,129 ± 15,69 ± 29,29.6,57 ± 12
"CCCCNC(=O)OCC#CI [Carbamic acid, butyl-, 3-iodo-2-propynyl ester]",64.6 ± 18,1.05 ± 0.13,-92.5 ± 3.8,20.3 ± 4.5,133 ± 50,27.3,37.1 ± 4.7
CN(C)S(=O)(=O)N(SC(F)(Cl)Cl)c1ccccc1 [Dichlofluanid],62.1 ± 23,1.96 ± 0.48,-92.1 ± 5,19.9 ± 4.2,169 ± 52,15.8,27.2 ± 1.8
N#C/C=C/C#N [Fumaronitrile],-12.4 ± 34,3.3 ± 0.42,-104 ± 7.3,8.38 ± 7.6,193 ± 39,32.9,23.1 ± 6.4
c1ccc2c(c1)OCC(C1=NCCN1)O2 (stereo unspecified) [Idazoxan],-1.64 ± 20,27.3 ± 3.8,-124 ± 14,12.4 ± 3.5,39.9 ± 3.1,12.6,22.4
[CH3][Hg][Cl] [Methyl mercuric (II) chloride],0,46.5 ± 3.1,-97.5 ± 1.4,73.6 ± 0.91,188 ± 110,3.98,6.57 ± 0.44
"c1ccc(Nc2ccc(Nc3ccccc3)cc2)cc1 [N,N'-Diphenyl-p-phenylenediamine]",-22.2 ± 3.3,23 ± 18,-119 ± 12,9.77 ± 9.9,54.7 ± 14,22.5,55.2 ± 14
"CN(C)c1ccc(N)cc1 [N,N-Dimethyl-p-phenylenediamine]",-17.1 ± 8.3,8.18 ± 2.3,-130 ± 19,21 ± 7.2,84.5 ± 29,17.1,
COP(=O)(OC)OC(Br)C(Cl)(Cl)Br (stereo unspecified) [Naled],-3.08 ± 5.3,0.93 ± 0.12,-89.9 ± 2.4,8.61 ± 7.6,307 ± 93,31.8,46.5 ± 3.1
CC(C)=CC1C(C(=O)OCc2coc(Cc3ccccc3)c2)C1(C)C (stereo unspecified) [Resmethrin],-58 ± 4.8,58.1 ± 19,-122 ± 8.3,4.15 ± 7.2,69.7 ± 30,46.5,

# The next lines start with results.
efficacy of lysine peptide change [2],AC50 [3] [µM],efficacy of cysteine peptide change [4],SMILES,efficacy of IL-8 induction (THP-1),efficacy of ARE luciferase induction [1],AC50 of Nrf2/ARE luciferase induction [5] [µM],cytotoxicity AC50 [6] [µM]
20.6 ± 4.8,28.6 ± 15,-104 ± 14,C/C=C/C=C/CCCCCCCO [Codlelure],8.57 ± 7.8,1300 ± 400,73.7,44.9 ± 5.2
12.2 ± 14,79.8 ± 9.2,-95.5 ± 18,COc1ccc(C(=O)/C(Br)=C\C(=O)O)cc1 [Cytembena],33.2 ± 4.5,417 ± 100,37.1,57 ± 12
-21.7 ± 10,0.9 ± 0.1,-92.2 ± 5,COc1cccc2c1C(=O)c1c(O)c3c(c(O)c1C2=O)C[C@@](O)(C(=O)CO)C[C@@H]3O[C@H]1C[C@H](N)[C@H](O)[C@H](C)O1 [Doxorubicin*],31.2 ± 4.9,860 ± 140,7.94,11.3 ± 1.3
107 ± 12,0.29 ± 0.07,-93.5 ± 7.5,CCOc1ccc2nc3cc(N)ccc3c(N)c2c1 [Ethacridine lactate monohydrate],13.6 ± 2.8,86.2 ± 47,29.4,
-51.8 ± 5.7,9.27 ± 3.2,-100 ± 11,CC/C=C\C/C=C\C/C=C\CCCCCCCC(=O)OCC [Ethyl linolenate],14.7 ± 5.5,95.1 ± 71,18.4,32.9 ± 2.2
35 ± 23,40 ± 4.6,-113 ± 17,c1ccc(CCNc2nc(-c3ccccc3)cs2)cc1 [Fanetizole],45.8 ± 14,119 ± 37,33.2,41.4 ± 2.8
6.09 ± 18,33.5 ± 7.5,-91.9 ± 9.5,O=C(O)Cc1cc(I)c(Oc2cc(I)c(O)c(I)c2)c(I)c1 [Tetrac],0,377 ± 69,43.1,
-10.8 ± 18,19.9,-22.8 ± 5,CC(C)CCCCCCCOC(=O)c1ccc(C(=O)OCCCCCCCC(C)C)c(C(=O)OCCCCCCCC(C)C)c1 [Triisodecyl trimellitate],13.5 ± 0.9,72.5 ± 41,42.2,
